# Key:
# [1] = system: rat secondary biliary liver fibrosis (BDO); assay: Histological assessment (staging) of liver fibrosis in BDO rats; type: in vivo; details: Sham (sham operation with LU 80 mg/kg/d 6 weeks)
# [2] = Body and organ weights of rats with bile duct occlusion (BDO) or sham operation; type: in vivo
# Description: (§1) Female adult wistar rats, average weight 206±19 g, underwent the following microsurgical procedure under an operating microscope (OPMI 6-2, Zeiss, Germany) (B. Gerling, M. Becker, J. Waldschmidt, D. Schuppan (1996). J. Hepatol. 25:79-84; G. Boigk, L. Stroedter, H. Herbst H, et al. (1997). Hepatology 26:643-639.): 1. midline abdominal incision following anaesthesia with 100 mg/kg ketamine-hydroochloride (Ketanest®, Parke-Davis, Germany) and 10 mg/kg 5,6-dihydro-2-(2,6-xylidino)-4H-1,3-thiazine-hydrochloride (Rompun®, Bayer, Germany); 2. dissection of the common bile duct, insertion of a teflon catheter (Abbocath -T 26 G, venisystems, U.S.A.) and placement of a distal complete and a proximal incomplete ligature with 5-0 silk (Permahand , Ethicon, Germany); 3. retrograde injection of sodium-amidotrizoate (Ethibloc®, Ethicon Germany) at a dose of 0.02 ml/100 g body weight; 4. removal of the catheter, closure of the proximal ligature, scission of the bile duct between the ligatures and wound closure. After bile duct occlusion (BDO), animals received normal chow (Altromin®, Lage, Germany) and were allowed free access to water. […] The following therapeutic groups were formed: 1. BDO and LU at 80 mg/kg/d for 6 weeks (BDO 80/1-6:n=20); 2. BDO and LU at 80 mg/kg/d from week 4-6 of BDO (BDO 80/4-6:n=20); 3. […]
# Early mortality (within 1 h to 3 days) in rats with BDO was due to local infection and amounted to 9%. […] After 6 weeks rats were sacrificed under ketanest(rompun-anaesthesia by puncture of the right ventricle and exsanguination. Heart, liver, spleen and kidneys were weighed, and 1-2 g pieces of the left and the right liver lobes fixed in 4% formalin for histology and hydroxyproline (HYP) determinations.
# [3] = system: aminoterminal propeptide of procollagen type III (PIIINP); assay: Serum PIIINP radioimmunoassay in BDO rats; type: in vivo, rat; details: LU-treated BDO rats, dose-dependent
# Description: as §1, with “2.” for “2. BDO and LU at 80 mg/kg/d from week 4-6 of BDO (BDO 80/4-6:n=20); 3.”
# Standard laboratory parameters were measured by our in-hospital clinical chemical department, using an automated analyser (BM/Hitachi 747). […]
# [4] = BDO/LU 80/1-6: BDO, LU 80 mg/kg/d week 1-6, n = 10
# [5] = BDO/LU 80/4-6: BDO, LU 80 mg/kg/d week 4-6, n = 14
# [6] = Sham/LU: sham operation, LU 80 mg/kg/d for 6 weeks, n = 10
smiles,measurement,setting,value
COc1cc(OC)nc(O[C@H](C(=O)O)C(OC)(c2ccccc2)c2ccccc2)n1 [LU],Histological assessment of fibrosis: animals at Stage 0,[1],10
same,B.W.,[2]; [4],293.0 ± 32.89 g
same,Liver W.,[2]; [4],24.73 ± 4.47 g
same,Spleen W.,[2]; [4],1.78 ± 0.47 g
same,B.W.,[2]; [5],259.1 ± 30.2 g
same,Liver W.,[2]; [5],23.01 ± 5.33 g
same,Spleen W.,[2]; [5],1.62 ± 0.46 g
same,B.W.,[2]; [6],305.8 ± 23.40 g
same,Liver W.,[2]; [6],11.98 ± 1.95 g
same,Spleen W.,[2]; [6],0.73 ± 0.08 g
same,Liver and spleen weights,[2]; rats with BDO,reduced liver and spleen weights dose-dependently
same,"Weights of kidneys, heart and lungs","[2]; rats with BDO, high and low dose groups (not shown)",neither nor the low dose groups demonstrated significant differences
same,Lowering of serum PIIINP,[3],20-50%

# Source: patent publication US20020098186A1, “Use of endothelin inhibitors for treatment or prevention of fibrotic disorders” (priority 1999, published 2002)
